Where a name gives a salt, the structure may show the parent alone.
Target: T1, NLRP3 (Homo sapiens, UniProt Q96P20)
T1 construct: Seed THP-1 cells (25,000 cells/well) containing 1.0 μg/ml LPS in 40 μl of RPMI medium; host or cells: THP-1 cells
Assay: THP-1 cells pyroptosis assay
Assay type: cell-based
Settings: LPS 1 μg/ml, compound 3 hrs, nigericin 5 μM 1 hr, resazurin readout
Method: THP-1 cells (ATCC #TIB-202) were grown in RPMI containing L-glutamine (Gibco #11835) supplemented with 1 mM sodium pyruvate (Sigma #S8636) and penicillin (100 units/ml)/streptomycin (0.1 mg/ml) (Sigma #P4333) in 10% Fetal Bovine Serum (FBS) (Sigma #F0804). The cells were routinely passaged and grown to confluency (10^6 cells/ml). On the day of the experiment, THP-1 cells were harvested and resuspended into RPMI medium (without FBS). The cells were then counted and viability (>90%) checked by Trypan blue (Sigma #T8154). Appropriate dilutions were made to give a concentration of 625,000 cells/ml. To this diluted cell solution was added LPS (Sigma #L4524) to give a 1 μg/ml Final Assay Concentration (FAC). 40 μl of the final preparation was aliquoted into each well of a 96-well plate. The plate thus prepared was used for compound screening.
The following method step-by-step assay was followed for compound screening. • 1. Seed THP-1 cells (25,000 cells/well) containing 1.0 μg/ml LPS in 40 μl of RPMI medium (without FBS) in 96-well, black walled, clear bottom cell culture plates coated with poly-D-lysine (VWR #734-0317) • 2. Add 5 μl compound (8 points half-log dilution, with 10 μM top dose) or vehicle (DMSO 0.1% FAC) to the appropriate wells • 3. Incubate for 3 hrs at 37° C., 5% CO2 • 4. Add 5 μl nigericin (Sigma #N7143) (FAC 5 μM) to all wells • 5. Incubate for 1 hr at 37° C., 5% CO2 • 6. At the end of the incubation period, spin plates at 300×g for 3 mins and remove supernatant • 7. Then add 50 μl of resazurin (Sigma #R7017)(FAC 100 μM resazurin in RPMI medium without FBS) and incubate plates for a further 1-2 hrs at 37° C. and 5% CO2 • 8. Plates were read in an Envision reader at Ex 560 nm and Em 590 nm • 9. IC50 data is fitted to a non-linear regression equation (log inhibitor vs response-variable slope 4-parameters) 96-well Plate Map

T1 sequence (Q96P20 whole entry): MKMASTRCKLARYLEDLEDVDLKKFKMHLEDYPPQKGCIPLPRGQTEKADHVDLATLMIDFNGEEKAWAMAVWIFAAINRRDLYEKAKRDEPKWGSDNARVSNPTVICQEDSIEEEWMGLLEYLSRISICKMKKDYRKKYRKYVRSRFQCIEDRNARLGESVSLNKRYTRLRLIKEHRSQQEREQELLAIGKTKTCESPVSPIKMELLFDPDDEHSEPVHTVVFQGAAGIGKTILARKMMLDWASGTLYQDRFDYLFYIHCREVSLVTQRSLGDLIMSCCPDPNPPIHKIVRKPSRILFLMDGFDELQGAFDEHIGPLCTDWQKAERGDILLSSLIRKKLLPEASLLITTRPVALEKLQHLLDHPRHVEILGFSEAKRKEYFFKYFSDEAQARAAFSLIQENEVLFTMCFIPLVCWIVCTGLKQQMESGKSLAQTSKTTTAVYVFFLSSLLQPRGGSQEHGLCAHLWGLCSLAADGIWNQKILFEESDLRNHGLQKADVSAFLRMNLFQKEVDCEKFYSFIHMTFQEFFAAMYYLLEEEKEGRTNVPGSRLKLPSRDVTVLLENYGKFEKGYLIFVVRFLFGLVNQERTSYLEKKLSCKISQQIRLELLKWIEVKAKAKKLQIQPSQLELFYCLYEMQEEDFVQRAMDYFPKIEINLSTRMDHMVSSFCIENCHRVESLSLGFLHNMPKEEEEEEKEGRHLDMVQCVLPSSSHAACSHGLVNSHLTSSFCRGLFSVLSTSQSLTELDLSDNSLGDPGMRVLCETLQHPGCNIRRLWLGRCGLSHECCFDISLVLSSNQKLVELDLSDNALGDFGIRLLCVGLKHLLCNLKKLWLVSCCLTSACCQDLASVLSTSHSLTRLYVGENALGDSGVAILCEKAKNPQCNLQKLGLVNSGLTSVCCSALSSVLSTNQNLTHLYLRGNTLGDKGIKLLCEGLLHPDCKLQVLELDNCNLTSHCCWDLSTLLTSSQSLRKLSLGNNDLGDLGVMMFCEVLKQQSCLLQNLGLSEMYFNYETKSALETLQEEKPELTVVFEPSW

Row | IC50 | SMILES
1 | ≤ 10 µM | COc1cc(-c2cc(F)cc(C(C)C)c2CC(=O)NS(=O)(=O)c2ccc(=O)n(C)c2)ccn1 [Example 1, 2-(4-Fluoro-2-isopropyl-6-(2-methoxypyridin-4-yl)phenyl)-N-((1-methyl-6-oxo-,6-dihydropyridin-3-yl)sulfonyl)acetamide, potassium salt]
2 | ≤ 5 µM | COc1cc(-c2cc(F)cc(C(C)C)c2CC(=O)NS(=O)(=O)c2ccc(=O)n(C(C)C)c2)ccn1 [Example 2, 2-(4-Fluoro-2-isopropyl-6-(2-methoxypyridin-4-yl)phenyl)-N-((1-isopropyl-6-oxo-,6-dihydropyridin-3-yl)sulfonyl)acetamide, potassium salt]
3 | ≤ 1 µM | COc1cc(-c2cc(F)cc(C(C)C)c2CC(=O)NS(=O)(=O)c2cn(C)c(=O)n(C)c2=O)ccn1 [Example 3, N-((1,3-Dimethyl-2,4-dioxo-1,2,3,4-tetrahydropyrimidin-5-yl)sulfonyl)-2-(4-fluoro-2-isopropyl-6-(2-methoxypyridin-4-yl)phenyl)acetamide]
4 | ≤ 1 µM | COc1cc(-c2cc(F)cc(C(C)C)c2CC(=O)NS(=O)(=O)c2ccc(Cl)cc2F)ccn1 [Example 4]
5 | ≤ 1 µM | COc1cc(-c2cc(F)cc(C(C)C)c2CC(=O)NS(=O)(=O)c2cccc(Cl)c2)ccn1 [Example 5]
6 | ≤ 10 µM | COc1cc(-c2cc(F)cc(C(C)C)c2CC(=O)NS(=O)(=O)c2cccc(Cl)c2C)ccn1 [Example 6]
7 | ≤ 5 µM | COc1cc(-c2cc(F)cc(C(C)C)c2CC(=O)NS(=O)(=O)c2ccccc2Cl)ccn1 [Example 7]
8 | ≤ 10 µM | COc1cc(-c2cc(F)cc(C(C)C)c2CC(=O)NS(=O)(=O)c2sccc2C(C)(C)O)ccn1 [Example 8]
9 | ≤ 1 µM | COc1cc(-c2cc(F)cc(C(C)C)c2CC(=O)NS(=O)(=O)c2ccc(Cl)c(Cl)c2)ccn1 [Example 11]
10 | ≤ 1 µM | COc1cc(-c2cc(F)cc(C(C)C)c2CC(=O)NS(=O)(=O)c2ccc(Cl)cc2Cl)ccn1 [Example 13]
11 | ≤ 0.5 µM | COc1cc(-c2cc(F)cc(C(C)C)c2CC(=O)NS(=O)(=O)c2ccc(N(C)C)cc2C)ccn1 [Example 14]
12 | ≤ 1 µM | COc1cc(-c2cc(F)cc(C(C)C)c2CC(=O)NS(=O)(=O)c2ccc(Br)cc2)ccn1 [Example 19]
13 | ≤ 5 µM | COc1cc(-c2cc(F)cc(C(C)C)c2CC(=O)NS(=O)(=O)c2ccn(C(C)C)n2)ccn1 [Example 23, 2-(4-Fluoro-2-isopropyl-6-(2-methoxypyridin-4-yl)phenyl)-N-((1-isopropyl-1H-pyrazol-3-yl)sulfonyl)acetamide, potassium salt]
14 | ≤ 10 µM | CC(C)c1cc(F)cc(-c2cccnc2)c1CC(=O)NS(=O)(=O)c1ccn(C(C)C)n1 [Example 24, 2-(4-Fluoro-2-isopropyl-6-(pyridin-3-yl)phenyl)-N-((1-isopropyl-1H-pyrazol-3-yl)sulfonyl)acetamide, potassium salt]
15 | ≤ 0.5 µM | COc1cc(-c2cc(F)cc(C(C)C)c2CC(=O)NS(=O)(=O)c2cc(C(C)(C)O)cs2)ccn1 [Example 26, 2-(4-Fluoro-2-isopropyl-6-(2-methoxypyridin-4-yl)phenyl)-N-((4-(2-hydroxypropan-2-yl)thiophen-2-yl)sulfonyl)acetamide]
16 | ≤ 5 µM | CCOC(=O)c1cc(S(=O)(=O)NC(=O)Cc2c(-c3ccnc(OC)c3)cc(F)cc2C(C)C)nn1C [Example 28, Ethyl 3-(N-(2-(4-fluoro-2-isopropyl-6-(2-methoxypyridin-4-yl)phenyl)acetyl)sulfamoyl)-1-methyl-1H-pyrazole-5-carboxylate]
17 | ≤ 5 µM | COc1cc(-c2cc(F)cc(C(C)C)c2CC(=O)NS(=O)(=O)c2cccc(C#N)c2)ccn1 [Example 30, N-((3-Cyanophenyl)sulfonyl)-2-(4-fluoro-2-isopropyl-6-(2-methoxypyridin-4-yl)phenyl)acetamide]
18 | ≤ 10 µM | COc1cc(-c2cc(F)cc(C(C)C)c2CC(=O)NS(=O)(=O)c2cc(C#N)ccc2C)ccn1 [Example 35, N-((5-Cyano-2-methylphenyl)sulfonyl)-2-(4-fluoro-2-isopropyl-6-(2-methoxypyridin-4-yl)phenyl)acetamide]

The remaining lines, values behind:

Row | SMILES | IC50
19 | COC(=O)c1ccc(S(=O)(=O)NC(=O)Cc2c(-c3ccnc(OC)c3)cc(F)cc2C(C)C)cc1Cl [Example 9] | ≤ 5 µM
20 | CC(C)c1cc(F)cc(-c2ccc(Cl)nc2)c1CC(=O)NS(=O)(=O)c1cc(C(C)(C)O)cs1 [Example 10] | ≤ 5 µM
21 | COc1cc(-c2cc(F)cc(C(C)C)c2CC(=O)NS(=O)(=O)c2ccc(Cl)cc2OC)ccn1 [Example 12] | ≤ 1 µM
22 | COc1cc(-c2cc(F)cc(C(C)C)c2CC(=O)NS(=O)(=O)c2ccc(C(=O)N(C)C)cc2C)ccn1 [Example 15] | ≤ 5 µM
23 | CC(C)c1cc(F)cc(-c2ccncc2)c1CC(=O)NS(=O)(=O)c1ccc(Cl)cc1 [Example 16] | ≤ 5 µM
24 | CC(C)c1cc(F)cc(-c2cccnc2)c1CC(=O)NS(=O)(=O)c1ccc(Cl)cc1 [Example 17] | ≤ 5 µM
25 | COc1cc(-c2cc(F)cc(C(C)C)c2CC(=O)NS(=O)(=O)c2ccc(B(O)O)cc2)ccn1 [Example 18] | ≤ 10 µM
26 | COc1cc(-c2ccc3c(c2CC(=O)NS(=O)(=O)c2cc(C(C)(C)O)cs2)CCC3)ccn1 [Example 20, N-((4-(2-Hydroxypropan-2-yl)thiophen-2-yl)sulfonyl)-2-(5-(2-methoxypyridin-4-yl)-2,3-dihydro-1H-inden-4-yl)acetamide] | ≤ 1 µM
27 | CC(C)n1ccc(S(=O)(=O)NC(=O)Cc2c(-c3ccnc(C#N)c3)ccc3c2CCC3)n1 [Example 21, 2-(5-(2-Cyanopyridin-4-yl)-2,3-dihydro-H-inden-4-yl)-N-((1-isopropyl-1H-pyrazol-3-yl)sulfonyl)acetamide] | ≤ 10 µM
28 | CC(C)(O)c1csc(S(=O)(=O)NC(=O)Cc2c(-c3ccnc(C#N)c3)ccc3c2CCC3)c1 [Example 22, 2-(5-(2-Cyanopyridin-4-yl)-2,3-dihydro-1H-inden-4-yl)-N-((4-(2-hydroxypropan-2-yl)thiophen-2-yl)sulfonyl)acetamide] | ≤ 5 µM
29 | CC(C)c1cc(F)cc(-c2cccnc2)c1CC(=O)NS(=O)(=O)c1cc(C(C)(C)O)cs1 [Example 25, 2-(4-Fluoro-2-isopropyl-6-(pyridin-3-yl)phenyl)-N-((4-(2-hydroxypropan-2-yl)thiophen-2-yl)sulfonyl)acetamide] | ≤ 0.5 µM
30 | CC(C)c1cc(F)cc(-c2ccncc2)c1CC(=O)NS(=O)(=O)c1cc(C(C)(C)O)cs1 [Example 27, 2-(4-Fluoro-2-isopropyl-6-(pyridin-4-yl)phenyl)-N-((4-(2-hydroxypropan-2-yl)thiophen-2-yl)sulfonyl)acetamide, potassium salt] | ≤ 0.5 µM
31 | COc1cc(-c2cc(F)cc(C(C)C)c2CC(=O)NS(=O)(=O)c2ccc3c(c2)C(C)(C)OC3=O)ccn1 [Example 29, N-((3,3-Dimethyl-1-oxo-1,3-dihydroisobenzofuran-5-yl)sulfonyl)-2-(4-fluoro-2-isopropyl-6-(2-methoxypyridin-4-yl)phenyl) acetamide] | ≤ 5 µM
32 | COc1cc(-c2cc(F)cc(C(C)C)c2CC(=O)NS(=O)(=O)c2ccc(CN(C)C)cc2)ccn1 [Example 31, N-((4-((Dimethylamino)methyl)phenyl)sulfonyl)-2-(4-fluoro-2-isopropyl-6-(2-methoxypyridin-4-yl)phenyl)acetamide, potassium salt] | ≤ 5 µM
33 | COc1cc(-c2cc(F)cc(C(C)C)c2CC(=O)NS(=O)(=O)c2cccc(CC#N)c2)ccn1 [Example 32, N-((3-(Cyanomethyl)phenyl)sulfonyl)-2-(4-fluoro-2-isopropyl-6-(2-methoxypyridin-4-yl)phenyl)acetamide] | ≤ 1 µM
34 | COc1cc(-c2cc(F)cc(C(C)C)c2CC(=O)NS(=O)(=O)c2ccc(C(C)(C)O)cc2C)ccn1 [Example 33, 2-(4-Fluoro-2-isopropyl-6-(2-methoxypyridin-4-yl)phenyl)-N-((4-(2-hydroxypropan-2-yl)-2-methylphenyl)sulfonyl)acetamide] | ≤ 0.5 µM
35 | COc1cc(-c2cc(F)cc(C(C)C)c2CC(=O)NS(=O)(=O)c2ccc(F)c(C#N)c2)ccn1 [Example 34, N-((3-Cyano-4-fluorophenyl)sulfonyl)-2-(4-fluoro-2-isopropyl-6-(2-methoxypyridin-4-yl)phenyl)acetamide] | ≤ 10 µM
36 | CC(C)c1cc(F)cc(-c2ccncc2)c1CC(=O)NS(=O)(=O)c1ccc(CN(C)C)cc1 [Example 36, N-((4-((Dimethylamino)methyl)phenyl)sulfonyl)-2-(4-fluoro-2-isopropyl-6-(pyridin-4-yl)phenyl)acetamide] | ≤ 5 µM
